Results on two substances are retold here after patent US10006912B2, “Peptides for diagnosing lyme disease” (B[…]., priority 2013, dated 2018).

The subject of experiment [1] is IgM in sera containing antibodies against B. burgdorferi proteins. Description: Epitope mapping of DbpB overlapping peptide library, IgM binding. More on the design: species or system human. The conditions noted are these: 8 high titer Lyme disease patient sera; 20-AA library peptides of DbpB, B. burgdorferi B31. The procedure: (§1) Epitope mapping of full-length DbpB was performed by ArrayIt, Corp. (Sunnyvale, Calif.). Briefly, an overlapping peptide library consisting of 20-AA long peptides overlapping by 15-AA (offset by 5-AA) was generated using the sequence for DbpB from B. burgdorferi B31 (Accession #AAC66244). The sequence submitted for mapping lacked the first 8 AA. The library was exposed to 8 sera containing antibodies against B. burgdorferi proteins, as determined by commercial Lyme immunostrips (Viramed Biotech AG, Planegg, Germany). IgM and IgG binding were independently evaluated, and data were reported in terms of fluorescent binding intensity. Peptides generated from epitope mapping data were produced by Lifetein, Inc (South Plainfield, N.J.). […]
(§2) Linear epitope mapping of DbpB was accomplished by probing overlapping peptide libraries containing full length sequences derived from the B31 strain of B. burgdorferi sensu stricto, with serum obtained from 8 Lyme disease patients with high levels of anti-Borrelia antibody as determined using commercially available Lyme disease immunoblot strips. […]

Experiment [2] relates to IgG in sera containing antibodies against B. burgdorferi proteins. Description: Epitope mapping of DbpB overlapping peptide library, IgG binding. More on the design: species or system human. The conditions noted are these: 8 high titer Lyme disease patient sera; 20-AA library peptides of DbpB, B. burgdorferi B31. The procedure:
as §1, §2

Turning to “DbpB(38-57): 20-AA library peptide of DbpB from B. burgdorferi B31; one of two overlapping peptides forming DbpB(38-67) (KDLKNKILKIKKEATGKGVL)”, in experiment [1], the “samples in which the peptide was bound by IgM” value worked out at 100%.

Take “DbpB(48-67): 20-AA library peptide of DbpB from B. burgdorferi B31; one of two overlapping peptides forming DbpB(38-67) (KKEATGKGVLFEAFTGLKTG)”: the “samples in which the peptide was bound by IgG” value in experiment [2] came out at 100%.
